Experimental data published in publication PMC11277489, “Novel Piperazine Derivatives of Vindoline as Anticancer Agents” (International Journal of Molecular Sciences, 2024).

Key:
NCI-H322M = assay: NCI60 one-dose screen (10 μM), Non-small Cell Lung Cancer; format: cell-based; details: Homo sapiens, 10 μM, Non-small Cell Lung Cancer, read-out: Growth percent rate
OVCAR-4 = assay: NCI60 one-dose screen (10 μM), Ovarian Cancer; format: cell-based; details: Homo sapiens; 10 μM; OVCAR-4, Ovarian Cancer; read-out: Growth percent rate
SNB-75 = assay: NCI60 one-dose screen (10 μM), CNS Cancer; format: cell-based, human; details: Homo sapiens; 10 μM; SNB-75, CNS Cancer; read-out: Growth percent rate
HT29 = assay: NCI60 one-dose screen (10 μM), Colon Cancer; format: cell-based; details: Homo sapiens, HT-29; 10 μM; HT29, Colon Cancer; read-out: Growth percent rate
NCI-H522 = assay: NCI60 one-dose screen (10 μM), Non-small Cell Lung Cancer; format: cell-based; details: Homo sapiens; 10 μM; NCI-H522, Non-small Cell Lung Cancer; read-out: Growth percent rate
DU-145 = assay: NCI60 one-dose screen (10 μM), Prostate Cancer; format: cell-based; details: Homo sapiens; 10 μM; DU-145, Prostate Cancer; read-out: Growth percent rate
HCT-116 = assay: NCI60 one-dose screen (10 μM), Colon Cancer; format: cell-based; details: Homo sapiens; 10 μM; HCT-116, Colon Cancer; read-out: Growth percent rate
U251 = assay: NCI60 one-dose screen (10 μM), CNS Cancer; format: cell-based; details: Homo sapiens, U-251; 10 μM; U251, CNS Cancer; read-out: Growth percent rate
SK-MEL-2 = assay: NCI60 one-dose screen (10 μM), Melanoma; format: cell-based; details: Homo sapiens; 10 μM; SK-MEL-2, Melanoma; read-out: Growth percent rate
A498 = assay: NCI60 one-dose screen (10 μM), Renal Cancer; format: cell-based; details: Homo sapiens; 10 μM; A498, Renal Cancer; read-out: Growth percent rate
COLO 205 = assay: NCI60 one-dose screen (10 μM), Colon Cancer; format: cell-based, human
IGROV1 = assay: NCI60 one-dose screen (10 μM), Ovarian Cancer; format: cell-based; details: Homo sapiens, IGROV-1; 10 μM; IGROV1, Ovarian Cancer; read-out: Growth percent rate
[1] = system: 60 human tumor cell lines (NCI60); assay: NCI60 one-dose screen (10 μM), whole panel; format: cell-based; details: 10 μM; mean over 60 human cancer cell lines; read-out: Growth percent rate, Mean
OVCAR-8 = assay: NCI60 one-dose screen (10 μM), Ovarian Cancer; format: cell-based; details: Homo sapiens; 10 μM; OVCAR-8, Ovarian Cancer; read-out: Growth percent rate
CCRF-CEM = assay: NCI60 one-dose screen (10 μM), Leukemia; format: cell-based; details: Homo sapiens, 10 μM, Leukemia, read-out: Growth percent rate
OVCAR-3 = assay: NCI60 one-dose screen (10 μM), Ovarian Cancer; format: cell-based; details: Homo sapiens; 10 μM; OVCAR-3, Ovarian Cancer; read-out: Growth percent rate
HCT-15 = assay: NCI60 one-dose screen (10 μM), Colon Cancer; format: cell-based; details: Homo sapiens; 10 μM; HCT-15, Colon Cancer; read-out: Growth percent rate
HS 578T = assay: NCI60 one-dose screen (10 μM), Breast Cancer; format: cell-based; details: Homo sapiens; 10 μM; HS 578T, Breast Cancer; read-out: Growth percent rate
M14 = assay: NCI60 one-dose screen (10 μM), Melanoma; format: cell-based; details: Homo sapiens; 10 μM; M14, Melanoma; read-out: Growth percent rate
786–0 = assay: NCI60 one-dose screen (10 μM), Renal Cancer; format: cell-based; details: Homo sapiens; 10 μM; 786-0, Renal Cancer; read-out: Growth percent rate
MOLT-4 = assay: NCI60 one-dose screen (10 μM), Leukemia; format: cell-based, human; details: Homo sapiens; 10 μM; MOLT-4, Leukemia; read-out: Growth percent rate
ACHN = assay: NCI60 one-dose screen (10 μM), Renal Cancer; format: cell-based; details: Homo sapiens, 10 μM, Renal Cancer, read-out: Growth percent rate
NCI-H23 = assay: NCI60 one-dose screen (10 μM), Non-small Cell Lung Cancer; format: cell-based; details: Homo sapiens; 10 μM; NCI-H23, Non-small Cell Lung Cancer; read-out: Growth percent rate
HCC-2998 = assay: NCI60 one-dose screen (10 μM), Colon Cancer; format: cell-based; details: Homo sapiens; 10 μM; HCC-2998, Colon Cancer; read-out: Growth percent rate
CAKI-1 = assay: NCI60 one-dose screen (10 μM), Renal Cancer; format: cell-based; details: Homo sapiens; 10 μM; CAKI-1, Renal Cancer; read-out: Growth percent rate
K-562 = assay: NCI60 one-dose screen (10 μM), Leukemia; format: cell-based; details: Homo sapiens, K562; 10 μM; K-562, Leukemia; read-out: Growth percent rate
MCF7 = assay: NCI60 one-dose screen (10 μM), Breast Cancer; format: cell-based; details: Homo sapiens; 10 μM; MCF7, Breast Cancer; read-out: Growth percent rate
SK-MEL-28 = assay: NCI60 one-dose screen (10 μM), Melanoma; format: cell-based; details: Homo sapiens; 10 μM; SK-MEL-28, Melanoma; read-out: Growth percent rate
SK-MEL-5 = assay: NCI60 one-dose screen (10 μM), Melanoma; format: cell-based, human
A549/ATCC = assay: NCI60 one-dose screen (10 μM), Non-small Cell Lung Cancer; format: cell-based; details: Homo sapiens; 10 μM; A549/ATCC, Non-small Cell Lung Cancer; read-out: Growth percent rate
SF-268 = assay: NCI60 one-dose screen (10 μM), CNS Cancer; format: cell-based; details: Homo sapiens; 10 μM; SF-268, CNS Cancer; read-out: Growth percent rate
UACC-257 = assay: NCI60 one-dose screen (10 μM), Melanoma; format: cell-based; details: Homo sapiens; 10 μM; UACC-257, Melanoma; read-out: Growth percent rate
RPMI-8226 = assay: NCI60 one-dose screen (10 μM), Leukemia; format: cell-based; details: Homo sapiens; 10 μM; RPMI-8226, Leukemia; read-out: Growth percent rate
SW-620 = assay: NCI60 one-dose screen (10 μM), Colon Cancer; format: cell-based; details: Homo sapiens; 10 μM; SW-620, Colon Cancer; read-out: Growth percent rate
SF-539 = assay: NCI60 one-dose screen (10 μM), CNS Cancer; format: cell-based, human
EKVX = assay: NCI60 one-dose screen (10 μM), Non-small Cell Lung Cancer; format: cell-based; details: Homo sapiens, 10 μM, Non-small Cell Lung Cancer, read-out: Growth percent rate
NCI-H460 = assay: as above; format: cell-based; details: Homo sapiens; 10 μM; NCI-H460, Non-small Cell Lung Cancer; read-out: Growth percent rate
HOP-62 = assay: as above; format: cell-based; details: Homo sapiens; 10 μM; HOP-62, Non-small Cell Lung Cancer; read-out: Growth percent rate
HL-60(TB) = assay: NCI60 one-dose screen (10 μM), Leukemia; format: cell-based; details: Homo sapiens; 10 μM; HL-60(TB), Leukemia; read-out: Growth percent rate
RXF 393 = assay: NCI60 one-dose screen (10 μM), Renal Cancer; format: cell-based, human
MDA-MB-435 = assay: NCI60 one-dose screen (10 μM), Melanoma; format: cell-based; details: Homo sapiens; 10 μM; MDA-MB-435, Melanoma; read-out: Growth percent rate
SN12C = assay: NCI60 one-dose screen (10 μM), Renal Cancer; format: cell-based; details: Homo sapiens, 10 μM, Renal Cancer, read-out: Growth percent rate

Compound: CC[C@]12C=CCN3CC[C@@]4(c5ccc(OC)cc5N(C)[C@H]4[C@@](O)(C(=O)OC)[C@@H]1OC(=O)CCCN1CCN(c4ccc(C(F)(F)F)cc4)CC1)[C@@H]32 [Compound 22]
- activity at 10 µM (NCI-H322M): 50.5%
- activity at 10 µM (OVCAR-4): -18.9%
- activity at 10 µM (SNB-75): 2.76%
- activity at 10 µM (HT29): -70.3%
- activity at 10 µM (NCI-H522): -86%
- activity at 10 µM (DU-145): -38.8%
- activity at 10 µM (HCT-116): -25.6%
- activity at 10 µM (U251): -88.4%
- activity at 10 µM (SK-MEL-2): -93.9%
- activity at 10 µM (A498): -15.1%
- growth percent rate (COLO 205; 10 μM one-dose, COLO-205 colon cancer, negative = lethality): −93.46%
- activity at 10 µM (COLO 205; Homo sapiens, 10 μM, COLO 205, Colon Cancer, read-out: Growth percent rate): -93.5%
- activity at 10 µM (IGROV1): -28.9%
- activity at 10 µM [1]: -44.5%
- activity at 10 µM (OVCAR-8): -47.4%
- activity at 10 µM (CCRF-CEM): 3.97%
- activity at 10 µM (OVCAR-3): -71.5%
- activity at 10 µM (HCT-15): -82.9%
- activity at 10 µM (HS 578T): -46.2%
- activity at 10 µM (M14): -75.5%
- activity at 10 µM (786–0): -72.7%
- activity at 10 µM (MOLT-4): 9.3%
- activity at 10 µM (ACHN): -20.3%
- activity at 10 µM (NCI-H23): -61.1%
- activity at 10 µM (HCC-2998): -82.3%
- activity at 10 µM (CAKI-1): -65%
- activity at 10 µM (K-562): 6.96%
- activity at 10 µM (MCF7): -51.5%
- activity at 10 µM (SK-MEL-28): -92.1%
- growth percent rate (SK-MEL-5; 10 μM one-dose, SK-MEL-5 melanoma, negative = lethality): −98.54%
- activity at 10 µM (SK-MEL-5; Homo sapiens, 10 μM, SK-MEL-5, Melanoma, read-out: Growth percent rate): -98.5%
- activity at 10 µM (A549/ATCC): 4.54%
- activity at 10 µM (SF-268): 0.04%
- activity at 10 µM (UACC-257): -79.3%
- activity at 10 µM (RPMI-8226): -9.29%
- activity at 10 µM (SW-620): 7.47%
- growth percent rate (SF-539; 10 μM one-dose, SF-539 CNS cancer, negative = lethality): −96.98%
- activity at 10 µM (SF-539; Homo sapiens, 10 μM, SF-539, CNS Cancer, read-out: Growth percent rate): -97%
- activity at 10 µM (EKVX): -49.9%
- activity at 10 µM (NCI-H460): -36.9%
- activity at 10 µM (HOP-62): 0.03%
- activity at 10 µM (HL-60(TB)): 7.9%
- growth percent rate (RXF 393; 10 μM one-dose, RXF-393 renal cancer, negative = lethality): −91.93%
- activity at 10 µM (RXF 393; Homo sapiens, 10 μM, RXF 393, Renal Cancer, read-out: Growth percent rate): -91.9%
- activity at 10 µM (MDA-MB-435): -78.9%
- activity at 10 µM (SN12C): -66.4%
